# In US8481527B2, “Benzamide derivatives as bradykinin antagonists” (Richter Gedeon Nyrt., priority 2006, dated 2013):
# Structures can show the parent of a compound that is named as a salt.
# Columns and labels:
# [1] = target: T1, human recombinant bradykinin B1 receptor (Homo sapiens, UniProt P46663); test: Human recombinant bradykinin B1 receptor binding; conditions: CHO cell membranes, [3H]-[Des-Arg10] Kallidin radioligand; read-out: B1 binding
# T1 construct: purchased Euroscreen ES-091; host or cells: CHO cells
# T1 sequence (P46663 1-353): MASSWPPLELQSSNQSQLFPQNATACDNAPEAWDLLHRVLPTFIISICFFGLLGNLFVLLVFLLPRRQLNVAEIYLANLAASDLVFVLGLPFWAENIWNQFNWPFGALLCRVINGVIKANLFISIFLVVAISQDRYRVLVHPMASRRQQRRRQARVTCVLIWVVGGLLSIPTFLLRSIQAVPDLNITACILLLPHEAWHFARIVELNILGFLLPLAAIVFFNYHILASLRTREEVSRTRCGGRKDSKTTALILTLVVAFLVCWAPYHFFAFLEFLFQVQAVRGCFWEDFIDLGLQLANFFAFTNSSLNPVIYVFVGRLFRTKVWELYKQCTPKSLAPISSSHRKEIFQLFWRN
# Description: Receptor Binding Assays 1. Human Recombinant Bradykinin B1 Receptor Binding
# Binding assays were carried out on human recombinant bradykinin) receptors (expressed in CHO cells) according to the Euroscreen Technical Data Sheet (Cat.No.:ES-091). 20 μg protein/tube was incubated with [3,4-prolyl-3,4-^3H(N)]-[Des-Arg^10] Kallidin as radioligand. Non specific binding was determined in the presence of 10 μM Lys-des-Arg^9-Bradykinin. The final incubation volume was 250 μl. Samples were incubated for 15 min. at 25° C. then were rapidly vacuum filtered through GF/B filters presoaked for at least 1 h in 0.5% PEI. Radioactivity was determined by liquid scintillation spectroscopy.
# [2] = target: T2, recombinant human B1 receptors (Homo sapiens, UniProt P46663); test: Functional assay: antagonist potency by cytosolic calcium measurement in CHO-B1 cells (agonist LysDABK); format: cell-based; conditions: CHO-B1 cells, LysDABK at EC80, fluo-4 [Ca2+]i; read-out: B1 func.
# T2 construct: host or cells: CHO (CHO-B1)
# T2 sequence (P46663 1-353): T1 sequence (P46663 1-353)
# Description: Assessment of Antagonist Potency at B1 and B2 Receptors In Vitro by Measurement of Cytosolic Calcium Ion Concentration with a Plate Reader Fluorimeter in Cells Expressing Recombinant Human B1 or B2 Receptors
# Chinese hamster ovary (CHO) cells stably expressing recombinant human B1 (CHO-B1, Euroscreen) or B2 (CHO-B2, Perkin-Elmer) receptors were cultured in Dulbecco's Modified Eagle's Medium (DMEM) containing 10% Fetal Calf Serum (FCS), 100 U/ml penicillin, 0.1 mg/ml streptomycin, 0.25 μg/ml amphotericin B, 1% Minimum Essential Medium Eagle (MEM), non essential amino acid solution, 600 μg/ml G418, 1% pyruvate (for the B2 cell line). Cells were kept at 37° C. in a humidified incubator in an atmosphere of 5% CO2/95% air and were passaged 1:4 three times a week. Cells were plated at 1.5-2.5×10^4 cell/well on standard 96-well microplates, measurements of cytosolic calcium ion concentration ([Ca^2+]i) were carried out 1-2 days after cell plating.
# Measurements of [Ca^2+]i were carried out on CHO-B1 and CHO-B2 cells stably expressing human B1 and B2 receptors, respectively. Cells were grown in standard 96-well microplates and before the measurement were loaded with a fluorescent Ca^2+-sensitive dye, fluo-4/AM (2 μM): after removing the culture medium the dye was added to the cells (dissolved in assay buffer: 145 mM NaCl, 5 mM KCl, 2 mM MgCl2, 2 mM CaCl2, 10 mM HEPES, 20 mM D-glucose, 2 mM probenecid, 100 μl/well) and cells were incubated at 37° C. in a humidified incubator in an atmosphere of 5% CO2/95% air for 40-120 min. To stop dye loading cells were washed twice with assay buffer. After washing, various concentrations of the test compounds (diluted in extracellular medium from a DMSO stock solution, final DMSO concentration was <0.1%) or buffer were added to each well depending on the experimental setup. After incubation at 37° C. for 20-25 min. baseline and agonist-evoked changes of [Ca^2+]i were measured column by column with a plate reader fluorimeter (Fluoroskan Ascent, Labsystems). Excitation and detection of emission was carried out from the bottom of the plate. Filters used for Fluo-4: excitation filter—485 nm, emission filter—538 nm. The whole measurement process was performed at 37° C. and was controlled by custom software. Inhibitory potency of the test compounds was assessed by measuring the reduction in the agonist-evoked [Ca^2+]i-elevation in the presence of different concentrations of the compounds. The agonists were LysDABK for CHO-B1, and bradykinin for CHO-B2 cells. Agonists were applied at an EC80 concentration, the EC80-values were derived from daily determined dose-response curves. Fluorescence data were expressed as ΔF/F (fluorescence change normalized to baseline). All treatments on a single plate were measured in multiple wells. Data from all wells with the same treatment were averaged and the average values were used for analysis. Inhibitory potency of a compound at a single concentration point was expressed as percent inhibition of the control agonist response. Sigmoidal concentration-inhibition curves were fitted to the data (derived from at least three independent experiments) and IC50-values were determined as the concentration that produces half of the maximal inhibition caused by the compound.
Compound,Ki [1],IC50 [2]
"O=C(NCC(=O)N1CCC(CCN2CCCC2)CC1)c1ccc(S(=O)(=O)Nc2ccccc2Oc2ccccc2)cc1 [Example 2.7, N-{2-Oxo-2-[4-(2-pyrrolidin-1-yl-ethyl)-piperidin-1-yl]-ethyl}-4-(2-phenoxy-phenylsulfamoyl)-benzamide]",< 20 nM,< 20 nM
"O=C(NCC(=O)N1CCN(CCCN2CCCC2)CC1)c1ccc(S(=O)(=O)Nc2ccccc2Oc2ccccc2)cc1 [Example 2.5, N-{2-Oxo-2-[4-(3-pyrrolidin-1-yl-propyl)-piperazin-1-yl]-ethyl}-4-(2-phenoxy-phenylsulfamoyl)-benzamide]",< 20 nM,< 20 nM
"CCN(CC)CCN1CCN(C(=O)CNC(=O)c2ccc(S(=O)(=O)Nc3ccccc3Oc3ccc(Cl)cc3Cl)cc2)CC1 [Example 1.3, 4-[2-(2,4-Dichloro-phenoxy)-phenylsulfamoyl]-N-{2-[4-(2-diethylamino-ethyl)-piperazin-1-yl]-2-oxo-ethyl}-benzamide]",< 20 nM,< 20 nM
"CCN(CC)CCN1CCN(C(=O)CNC(=O)c2ccc(S(=O)(=O)Nc3ccccc3Oc3ccccc3)cc2)CC1 [Example 2.4, N-{2-[4-(2-Diethylamino-ethyl)-piperazin-1-yl]-2-oxo-ethyl}-4-(2-phenoxy-phenylsulfamoyl)-benzamide]",< 20 nM,< 20 nM

# Continued, values first:
Ki [1],IC50 [2],Compound
20 to 100 nM,< 20 nM,"O=C(NCC(=O)N1CCNCC1)c1ccc(S(=O)(=O)Nc2ccccc2Oc2ccccc2)cc1 [Example 11.2, N-(2-Oxo-2-piperazin-1-yl-ethyl)-4-(2-phenoxy-phenylsulfamoyl)-benzamide hyrochloride]"
< 20 nM,< 20 nM,"O=C(NCC(=O)N1CCCNCC1)c1ccc(S(=O)(=O)Nc2ccccc2Oc2ccc(Cl)cc2Cl)cc1 [Example 11.5, N-(2-[1,4]Diazepan-1-yl-2-oxo-ethyl)-4-[2-(2,4-dichloro-phenoxy)-phenylsulfamoyl]-benzamide hydrochloride]"
< 20 nM,< 20 nM,"O=C(NCC(=O)N1CCC(CCO)CC1)c1ccc(S(=O)(=O)Nc2ccccc2C(=O)c2ccccc2)cc1 [Example 3.10, 4-(2-Benzoyl-phenylsulfamoyl)-N-{2-[4-(2-hydroxy-ethyl)-piperidin-1-yl]-2-oxo-ethyl}-benzamide]"
< 20 nM,< 20 nM,"O=C(NCC(=O)N1CCCCCC1)c1ccc(S(=O)(=O)Nc2ccccc2C(=O)c2ccccc2)cc1 [Example 3.4, N-(2-Azepan-1-yl-2-oxo-ethyl)-4-(2-benzoyl-phenylsulfamoyl)-benzamide]"
< 20 nM,< 20 nM,"O=C(NCC(=O)N1CCN(CCCN2CCCC2)CC1)c1ccc(S(=O)(=O)Nc2ccccc2C(=O)c2ccccc2)cc1 [Example 3.13, 4-(2-Benzoyl-phenylsulfamoyl)-N-{2-oxo-2-[4-(3-pyrrolidin-1-yl-propyl)-piperazin-1-yl]-ethyl}-benzamide]"
